Experimental data reported in patent US11389456B2, “Compounds and methods for treating oxalate-related diseases” (OxaluRx, Inc., priority 2018, dated 2022).
≈ marks a conversion by molar mass, not a printed value.

Experiments:
[1] = target: recombinant full-length human hydroxyacid oxidase 1 (HAO1), the equivalent of hGOX (Homo sapiens (Human), UniProt Q9UJM8); assay: In-vitro human glycolate oxidase (hGOX) assay (Amplex red/HRP fluorescence); type: biochemical
Experimental: Biological Activity Assay: In-Vitro Human Glycolate Oxidase (hGOX) Assay
The in-vitro glycolate oxidase assay was performed using recombinant full-length human hydroxyacid oxidase 1 (HAO1), the equivalent of hGOX. […] Purified HAO1 was dissolved in assay buffer consisting of 10 mM NaCl, 110 mM KCl, 2 mM MgCl2, 50 mM HEPES (pH 7.4) and 0.01% Triton™ X-100.

[2] = target: glycolate oxidase (GOX) in HepaRG-CAR cells (Homo sapiens (Human), UniProt Q9UJM8); assay: HepaRG-CAR cell-based assay for quantitation of glycolate oxidase inhibition (cellular glycolate flux, GC-MS); conditions: HepaRG-CAR cells, 500 μM glycolate, 48 hours incubation; read-out: IC50
glycolate oxidase (GOX) in HepaRG-CAR cells, sequence (Q9UJM8 whole entry): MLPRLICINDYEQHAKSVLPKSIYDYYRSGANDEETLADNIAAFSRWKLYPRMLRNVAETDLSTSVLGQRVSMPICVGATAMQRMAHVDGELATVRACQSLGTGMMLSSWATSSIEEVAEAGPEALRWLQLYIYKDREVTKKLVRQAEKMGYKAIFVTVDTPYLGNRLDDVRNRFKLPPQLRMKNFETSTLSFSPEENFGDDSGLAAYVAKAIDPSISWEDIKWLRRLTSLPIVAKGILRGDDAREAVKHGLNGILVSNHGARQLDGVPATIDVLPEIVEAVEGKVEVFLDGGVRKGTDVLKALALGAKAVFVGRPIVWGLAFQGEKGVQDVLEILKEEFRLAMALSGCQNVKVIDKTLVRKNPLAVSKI

[3] = Stability in human plasma; type: in vitro ADME; conditions: read-out: Plasma Stability T1/2
Experimental: Stability in Human Plasma.
Stock compounds were prepared for testing the stability in human plasma. First, 0.05 M sodium phosphate and 0.07 M NaCl buffer, pH 7.4, were pre-heated. In deionized water, 14.505 g/L Na2HPO 12H2O, 1.483 g/L NaH2PO4.2H2O and 4.095 g/L NaCl were dissolved. The basic solution was titrated with the phosphoric acid to pH 7.40. Frozen plasma was quickly thawed at 37° C. The plasma was centrifuged at 3,000 rpm for 8 minutes to remove clots, then pipetted and pooled as the plasma stock for the experiment. Only plasma within the range of pH 7.4 to pH 8 was used. If higher than pH 8, the plasma was discarded. The initial pH of the plasma was not adjusted to pH 7.4 with acid or by bubbling with carbon dioxide. By using a 5% carbon dioxide incubator and PBS buffer, a pH of 7.4 will be reached after the 4-hour equilibrium dialysis time. Plasma was iced until use.
Spiking solution A with 0.5 mM testing compounds was prepared by adding 10 μL of 10 mM test compounds stock solution to 190 μL DMSO. Spiking solution B with 0.02 mM testing compound was prepared by adding 40 μL of spiking solution A to 960 μL of […] sodium phosphate buffer with 0.5% BSA. The plasma and spiking solution B were prewarmed at 37° C. for 5 minutes. Ten μL of pre-warmed spiking solution B was added into the wells designated for all the time points (5, 15, 30, 45, 60 minutes). For the 0-minute timepoint, 400 μL acetonitrile containing internal standard were added to the wells of 0-minute plate and then 90 μL plasma were added. For the other timepoints, 90 μL of pre-warmed plasma were added into the wells (0, 5, 15, 30, 45, 60 minutes) and the timing was started. At 5, 15, 30, 45, 60 minutes, 400 μL acetonitrile containing internal standard were added to the wells of corresponding plates, respectively, to stop the reaction. After quenching, the plates were shaken on a vibrator (IKA, MTS 2/4) for 10 minutes at 600 rpm and then centrifuged at 5594×g for 15 minutes (Thermo Multifuge×3R). Fifty μL of supernatant was transferred from each well into a 96-well sample plate containing 50 μL ultra-pure water (Millipore, ZMQS50F01) for LC/MS analysis.

[4] = Protein binding (plasma equilibrium dialysis); type: in vitro ADME; conditions: 5 hours at 37° C.; for fraction unbound at 5 h, 1 μM: read-out: Protein Binding Fraction Bound (converted)
Experimental: For testing protein binding of stock compounds solubilized in DMSO, spiking solutions of test and reference compounds were prepared. Solution A (0.5 mM) was prepared by adding 10 μL of 10 mM stock solution into 190 μL of DMSO. Solution B (0.02 mM) was prepared by adding 8 μL of Solution A into 192 μL of 0.05 M sodium phosphate buffer. The final DMSO concentration in Solution B was 4%.
To prepare test and reference compounds in plasma, a 96-well plate with 380 μL aliquots of plasma in the wells designed for plasma and buffer, respectively. Twenty μL of Solution B (0.02 mM of test and reference compounds) were spiked into the pre-loaded plasma in the 96-well plate. The final test concentration is 1 μM containing 0.2% DMSO.
For dialysis sample loading a plasma again buffer system was prepared by applying aliquots of 100 μL of blank dialysis buffer to the receiver side of dialysis chambers and then applying aliquots of 100 μL of the plasma spiked with test and reference compounds to the donor side of the dialysis chamber. A 25-μL aliquot of the plasma spiked with test and reference compounds was added into a 96-well sample preparation plate as T″0″ plasma samples. Aliquots were mixed with the same volume of blank buffer (50:50, volume:volume). Samples were quenched with 200 μL of acetonitrile containing internal standard. The dialysis block was covered and a shaken at 60 rpm for 5 hours at 37° C.
After a 5-hour incubation, dialyzed samples were prepared from 25-μL aliquots from both the donor and receiver sides of the dialysis apparatus into new sample preparation plates. The aliquots were mixed with same volume of opposite matrixes. The samples were quenched with 200 μL acetonitrile containing internal standard. All 0-hour and 5-hour samples were vortexed at 600 rpm for 10 min followed by centrifugation at 5594×g for 15 minutes (Thermo Multifuge×3R). Fifty μL of the supernatants were transferred to anew 96-well plate and mixed with 50 μL Milli-Q water. The sample plate was covered and frozen at −20° C. until LC/MS/MS analysis.

[5] = Solubility in phosphate buffered saline (PBS), pH 7.4; type: physicochemical; conditions: phosphate buffer (PBS), aqueous buffer, kinetic from dmso stock; phosphate buffered saline pH 7.4, 1% DMSO, 1 hour shaking at room temperature
Experimental: (§1) For testing compound solubility in phosphate buffered saline (PBS), compound stock solutions were prepared at 10 mM in 100% DMSO. For testing in aqueous solution, the phosphate buffer was replaced with deionized, distilled water. Eleven grams Na2HPO4 (FW: 141.96 g/mol) and 3.5 g NaH2PO4.2H2O (FW: 156.03 g/mol) was added to 1 L Milli-Q water and adjusted to a pH to 7.4 with phosphoric acid or sodium hydroxide. For incubation, media were preheated to 37° C. Eight μL aliquots of reference and test compound stock solutions (10 mM) were added into 792 μL of 100 mM phosphate buffer (pH 7.4). The final DMSO concentration was 1%. Sample tubes were shaken for 1 hour at 1000 rpm at room temperature.
(§2) The calibration curve was prepared with 300-μM spiking solution (SS) in MeOH:acetonitrile (4:1). Six μL of 10 mM compound was added in 194 μL MeOH/acetonitrile (4:1). Samples were centrifuged for 10 minutes at 12,000 rpm to precipitate undissolved particles. Supernatants were transferred to a new tube or plate and dilute 10-fold and 100-fold with 100 mM buffer. Samples were prepared for LC-MS/MS analysis by adding 5 μL each sample (undiluted, 10-fold diluted, and 100-fold diluted) and 5 μL of standard curve samples to 95 μL of acetonitrile (containing internal standard).

[6] = Solubility in aqueous solution (deionized, distilled water); type: physicochemical; conditions: kinetic from dmso stock, 1% DMSO, read-out: Aqueous Solubility H2O
Experimental: as §1, §2

[7] = Metabolic stability in human liver microsomal preparation; type: in vitro ADME; conditions: pH 7.4, human liver microsomes, NADPH, 37° C.; for half-life at 1 μM: 0-45 min, read-out: Metabolic Stability t1/2
Experimental: For evaluating the metabolic stability in human liver microsomal preparation, three buffers were prepared. Buffer A had 1.0 L of 0.1 M monobasic potassium phosphate buffer containing 1.0 mM EDTA. Buffer B had 1.0 L of 0.1 M dibasic potassium phosphate buffer containing 1.0 mM EDTA. Buffer C had 0.1 M potassium phosphate buffer, 1.0 mM EDTA, adjusted to a pH 7.4 via titrating 700 mL buffer B with buffer A. Reference compound (ketanserin) and test compounds spiking solutions (500 μM) were prepared by adding 10 μL of 10 mM DMSO stock compound solution into 190 μL acetonitrile. A volume of 1.5 μL 500 μM spiking solution and 18.75 μL 20 mg/mL human liver microsomes were added into 479.75 μL of Buffer C on ice. A stock solution of 6 mM NADPH was prepared by dissolving NADPH into Buffer C.
Wells on an assay plate were iced and filled with 30 μL 1.5-μM spiking solution containing 0.75 mg/mL microsomes solution and designated for different timepoints (0-, 5-, 15-, 30-, 45-min). For the 0-min timepoint, 135 μL acetonitrile containing internal standard were added followed by 15 μL of NADPH stock solution (6 mM). All other plates were preincubated at 37° C. for 5 minutes and 15 μL NADPH stock solution (6 mM) were added to the plates to start the reaction. At 5-min, 15-min, 30-min, and 45-min, 135 μL acetonitrile containing internal standard were added to the wells of corresponding plates, respectively, to stop the reaction. After quenching, the plates were shaken on the vibrator (IKA, MTS 2/4) for 10 min at 600 rpm and then centrifuged at 5594×g for 15 minutes (Thermo Multifuge×3R). Fifty μL supernatant from each well were transported into a 96-well sample plate containing 50 μL of ultra-pure water (Millipore, ZMQS50F01) for LC/MS analysis.

recombinant full-length human hydroxyacid oxidase 1 (HAO1), the equivalent of hGOX, sequence (Q9UJM8 whole entry): as above

Row | Compound | IC50 [1] | IC50 [2] | half-life at 2 μM [3] | recovery at 5 h, 1 μM [4] | solubility at 1 h [5] | solubility at 1 h [6] | CLint scaled at 1 μM [7] | half-life at 1 μM [7] | fraction unbound at 5 h, 1 μM [4]
1 | C#Cc1cccc(Oc2[nH]nnc2C(=O)O)c1 [Example I-288, 5-(3-ethynylphenoxy)-1H-1,2,3-triazole-4-carboxylic acid] | 24 nM | – | 1.96 h | 110% | 92.4 µM (≈ 21.2 µg/mL) | 80.6 µM (≈ 18.5 µg/mL) | 3.11 mL/min/kg | 9.31 h | 0.025
2 | O=C(O)c1nn[nH]c1Oc1cccc(-c2cc(Cl)cc(Cl)c2)c1 [Example I-302, 5-((3′,5′-Dichloro-[1,1′-biphenyl]-3-yl)oxy)-1H-1,2,3-triazole-4-carboxylic acid] | 3 nM | – | 1.67 h | 104% | 112 µM (≈ 39 µg/mL) | 90.7 µM (≈ 31.7 µg/mL) | < 0.15 mL/min/kg | > 83.3 h | 0.017
3 | O=C(O)c1nn[nH]c1Oc1cccc(C2CCCCC2)c1 [Example I-268, 5-(3-Cyclohexylphenoxy)-1H-1,2,3-triazole-4-carboxylic acid] | 51 nM | – | 1.84 h | 106% | 97.6 µM (≈ 28 µg/mL) | 111 µM (≈ 31.9 µg/mL) | 84.2 mL/min/kg | 0.344 h | –
4 | O=C(O)c1nn[nH]c1Oc1ccc(C2CCCC2)cc1 [Example I-265, 5-(4-Cyclopentylphenoxy)-1H-1,2,3-triazole-4-carboxylic acid] | 25 nM | – | 1.44 h | 110% | 107 µM (≈ 29.2 µg/mL) | 100 µM (≈ 27.4 µg/mL) | 18.6 mL/min/kg | 1.55 h | –
5 | CC(C)=Cc1cccc(Oc2[nH]nnc2C(=O)O)c1 [Example I-286, 5-(3-(2-Methylprop-1-en-1-yl)phenoxy)-1H-1,2,3-triazole-4-carboxylic acid] | 14 nM | – | 3.45 h | 103% | 92.6 µM (≈ 24 µg/mL) | 95.8 µM (≈ 24.8 µg/mL) | 15.1 mL/min/kg | 1.92 h | 0.002

The next lines start with the values.

Row | IC50 [1] | IC50 [2] | half-life at 2 μM [3] | recovery at 5 h, 1 μM [4] | solubility at 1 h [5] | solubility at 1 h [6] | CLint scaled at 1 μM [7] | half-life at 1 μM [7] | fraction unbound at 5 h, 1 μM [4] | Compound
6 | 17 nM | 10000 nM | 3.22 h | 97.7% | – | – | – | – | – | O=C(O)c1[nH]nnc1Oc1ccc(-c2ccc(Cl)cc2)cc1 [Example I-152, 5-((4′-Chloro-[1,1′-biphenyl]-4-yl)oxy)-1H-1,2,3-triazole-4-carboxylic acid]
7 | 45 nM | – | 2.2 h | 99.9% | 112 µM (≈ 30.8 µg/mL) | 108 µM (≈ 29.7 µg/mL) | 35.2 mL/min/kg | 0.822 h | 0.003 | CCCC(C)c1ccc(Oc2[nH]nnc2C(=O)O)cc1 (stereo not shown) [Example I-273, 5-(4-(Pentan-2-yl)phenoxy)-1H-1,2,3-triazole-4-carboxylic acid]
8 | 13000 nM | – | 0.985 h | 109% | 97.9 µM (≈ 32.4 µg/mL) | 83.4 µM (≈ 27.6 µg/mL) | 7.08 mL/min/kg | 4.09 h | – | O=C(O)c1nn[nH]c1Oc1cccc(-c2ccc3ccccc3c2)c1 [Example I-178, 5-(3-(Naphthalen-2-yl)phenoxy)-1H-1,2,3-triazole-4-carboxylic acid]
9 | 67 nM | – | 1.26 h | 123% | 121 µM (≈ 29 µg/mL) | 108 µM (≈ 25.8 µg/mL) | < 0.15 mL/min/kg | > 83.3 h | – | O=C(O)c1nn[nH]c1Oc1ccc(Cl)cc1 [Example I-033, 5-(4-Chlorophenoxy)-1H-1,2,3-triazole-4-carboxylic acid]
10 | 22 nM | – | 1.7 h | 98.5% | 115 µM (≈ 29.8 µg/mL) | 110 µM (≈ 28.5 µg/mL) | 18.3 mL/min/kg | 1.58 h | – | O=C(O)c1nn[nH]c1Oc1ccc(C2CCC2)cc1 [Example I-275, 5-(4-Cyclobutylphenoxy)-1H-1,2,3-triazole-4-carboxylic acid]
11 | 38 nM | – | 8.02 h | 98.8% | 101 µM (≈ 23.4 µg/mL) | 97.6 µM (≈ 22.6 µg/mL) | < 0.15 mL/min/kg | > 83.3 h | 0.012 | C=Cc1ccc(Oc2[nH]nnc2C(=O)O)cc1 [Example I-285, 5-(4-Vinylphenoxy)-1H-1,2,3-triazole-4-carboxylic acid]
